Test results reported in ChEMBL document CHEMBL1128489, “Novel hexakis(areneisonitrile)technetium(I) complexes as radioligands targeted to the multidrug resistance P-glycoprotein” (J Med Chem, 1995).

Experiments:
[1] = Ratio of bioavailability in rat adrenal and rat blood.; format: functional, organism-based
V79 [2] = experiment: Net accumulation of the [99mTc]Isonitrile complex was measured in 77A cell lines in the presence of Verapamil.; format: functional, cell-based
[3] = Ratio of bioavailability in rat heart and rat blood.; format: functional, organism-based
[4] = Ratio of bioavailability in rat blood and rat brain.; format: functional, organism-based
V79 [5] = experiment: Verapamil index represents the ratio of net uptake in the presense of verapamil over control in 77A cell lines.; format: functional, cell-based
Rattus norvegicus [6] = experiment: Biodistribution values represent the mean % id/organ for paired rats 30 min post intravenous injection complex in Brain; format: ADME, organism-based; conditions: in vivo, 0.5 h
Rattus norvegicus [7] = experiment: Biodistribution values represent the mean % id/organ for paired rats 30 min post intravenous injection complex in Skin; format: ADME, organism-based; conditions: in vivo, 0.5 h
Rattus norvegicus [8] = experiment: Biodistribution values represent the mean % id/organ for paired rats 30 min post intravenous injection complex in Heart; format: ADME, organism-based; conditions: in vivo, 0.5 h
Rattus norvegicus [9] = experiment: Biodistribution values represent the mean % id/organ for paired rats 30 min post intravenous injection complex in Blood; format: ADME, organism-based; conditions: in vivo, 0.5 h
Rattus norvegicus [10] = experiment: Biodistribution values represent the mean % id/organ for paired rats 30 min post intravenous injection complex in Liver; format: ADME, organism-based; conditions: in vivo, 0.5 h
Rattus norvegicus [11] = experiment: Biodistribution values represent the mean % id/organ for paired rats 30 min post intravenous injection complex in Bone; format: ADME, organism-based, Bone element; conditions: in vivo, 0.5 h
Rattus norvegicus [12] = experiment: Biodistribution values represent the mean % id/organ for paired rats 30 min post intravenous injection complex in Muscles; format: ADME, organism-based, Muscle tissue; conditions: in vivo, 0.5 h
Rattus norvegicus [13] = experiment: Biodistribution values represent the mean % id/organ for paired rats 30 min post intravenous injection complex in Fat; format: ADME, organism-based; conditions: in vivo, 0.5 h
Rattus norvegicus [14] = experiment: Biodistribution values represent the mean % id/organ for paired rats 30 min post intravenous injection complex in GI; format: ADME, organism-based; conditions: in vivo, 0.5 h
Rattus norvegicus [15] = experiment: Biodistribution values represent the mean % id/organ for paired rats 30 min post intravenous injection complex in Spleen; format: ADME, organism-based; conditions: in vivo, 0.5 h
Rattus norvegicus [16] = experiment: Biodistribution values represent the mean % id/organ for paired rats 30 min post intravenous injection complex in Adrenal; format: ADME, organism-based; conditions: in vivo, 0.5 h
Rattus norvegicus [17] = experiment: Biodistribution values represent the mean % id/organ for paired rats 30 min post intravenous injection complex in Kidney; format: ADME, organism-based; conditions: in vivo, 0.5 h
Rattus norvegicus [18] = experiment: Biodistribution values represent the mean % id/organ for paired rats 30 min post intravenous injection complex in Lungs; format: ADME, organism-based, Lung; conditions: in vivo, 0.5 h

Substance	Ratio [1]	Net accumulation (V79 [2]; Cricetulus griseus)	Ratio [3]	Ratio [4]	Verapamil index (V79 [5]; Cricetulus griseus)	Net accumulation (V79 [2])	Verapamil index (V79 [5])	ID/organ (Rattus norvegicus [6]) [%]	ID/organ (Rattus norvegicus [7]) [%]	ID/organ (Rattus norvegicus [8]) [%]	ID/organ (Rattus norvegicus [9]) [%]	ID/organ (Rattus norvegicus [10]) [%]	ID/organ (Rattus norvegicus [11]) [%]	ID/organ (Rattus norvegicus [12]) [%]	ID/organ (Rattus norvegicus [13]) [%]	ID/organ (Rattus norvegicus [14]) [%]	ID/organ (Rattus norvegicus [15]) [%]	ID/organ (Rattus norvegicus [16]) [%]	ID/organ (Rattus norvegicus [17]) [%]	ID/organ (Rattus norvegicus [18]) [%]
Hexakis[2-(3,4,5-Trimethoxyphenyl)ethaneisonitrile]technetium Complex	54	101	9	5	1.07															
Hexakis[2-(3,4-Dimethoxyphenyl)ethaneisonitrile]technetium Complex	4.1		0.4	23		146	3.3													
Hexakis[2-(4-Methoxyphenyl)ethaneisonitrile]technetium Complex	13	494	3.5	26	3.09															
Hexakis[3,4,5-Trimethoxy-alpha-tolueneisonitrile]technetium Complex	24	57	5.5	6.7	0.81															
Hexakis[3,4-(Methylenedioxy)benzeneisonitrile]technetium Complex	14	93.9	0.4	9.3	1.87															
Hexakis[3,4-Dimethoxy-alpha-tolueneisonitrile]technetium Complex	7.9	362	0.6	19	1.53															
Hexakis[3,4-Dimethoxybenzeneisonitrile]technetium Complex	7.3	397	0.7	26	3.52															
Hexakis[3,5-Dimethoxy-alpha-tolueneisonitrile]technetium Complex	3.1	315	0.4	28	2.19															
Hexakis[3,5-Dimethoxybenzeneisonitrile]technetium Complex [listing 1 of 2 here]								0.01	0.26	0.03	0.5	92.5	1.53	0.74	0.11	3.12	2.25	0	0.49	1.83
Hexakis[3,5-Dimethoxybenzeneisonitrile]technetium Complex [listing 2 of 2 here]	1.7	15.3	1	7.5	1.84															
Hexakis[3-(hydroxymethyl)benzeneisonitrile]technetium Complex								0.01	0.62	0.12	3.39	62.2	3.6	2.99	0.2	13.8	1.85	0.05	2.98	0.63
Hexakis[3-Acetamidobenzeneisonitrile]technetium Complex [listing 1 of 2 here]								0.01	0.17	0.03	0.87	86.9	3.48	0.53	0.03	2.12	1.5	0.02	0.38	1.45
Hexakis[3-Acetamidobenzeneisonitrile]technetium Complex [listing 2 of 2 here]	8.8	147	0.7	15	0.77															
Hexakis[3-Nitrobenzeneisonitrile]technetium Complex								0.03	5.3	0.17	9.44	13.8	5.74	7.61	0.51	42.9	0.28	0.01	5.21	0.37
Hexakis[4-Acetylbenzeneisonitrile]technetium Complex [listing 1 of 2 here]								0.01	0.7	0.03	1.13	92.7	4.27	0.68	0.07	3.15	2.28	0.06	0.66	1.73
Hexakis[4-Acetylbenzeneisonitrile]technetium Complex [listing 2 of 2 here]	22	826	0.6	17	1.73															
Hexakis[4-Cyanobenzeneisonitrile]technetium Complex [listing 1 of 2 here]								0.03	1.23	0.13	9.89	75.7	4.9	3.84	0.37	2.99	2.47	0.03	1.23	2.2
Hexakis[4-Cyanobenzeneisonitrile]technetium Complex [listing 2 of 2 here]	1.2	161	0.3	31	1.61															
Hexakis[4-Methoxy-alpha-tolueneisonitrile]technetium Complex								0.02	0.58	0.08	4.56	85.6	2.73	1.92	0.24	3.31	2.45	0.03	0.45	1.31
Hexakis[4-Nitrobenzeneisonitrile]technetium Complex								0.06	3.65	0.33	19.2	38	8.79	6.87	1.26	10.1	1.12	0.03	4.84	1.06
Hexakis[5-Methoxy-2-methyl-4-nitrobenzeneisonitrile]technetium Complex								0.03	0.77	0.14	6.88	71.9	5.59	1.28	0.32	3.96	3.05	0.03	1.13	0.72
